We go through two compounds from patent US20090252778A1, “METHODS AND DEVICES FOR REDUCING TISSUE DAMAGE AFTER ISCHEMIC INJURY” (INNOVATIONAL HOLDINGS LLC., priority 2006, published 2009).

This data set in a line: in vitro cumulative release from dual drug stent. The data set is classed as physicochemical. The settings on record: insulin and Pimecrolimus eluting stent. Here is the method: FIG. 6a is a graph showing the in vitro cumulative release of insulin over time from a dual drug stent. FIG. 6b is a graph showing the in vitro cumulative release of pimecrolimus over time from a dual drug stent. A stent for eluting insulin and Pimecrolimus was made substantially according to the description in A above. The stent was loaded with a base region, an insulin drug region, and a Pimecrolimus cap region. The base contained PLGA and/or PEVA; the drug contained insulin 250 μg total drug load (TDL) and PLGA; and the cap contained PEVA, PLGA/PLA-PCL and Pimecrolimus 300 μg TDL, and 6 deposits of PLGA/PLA-PCL. FIGS. 6A and 6B show the release profile of the insulin and Pimecrolimus eluting stent, respectively, over time. As shown in FIG. 6A at least about 50% of the insulin is released in the first 48 hours.

`CC[C@@H]1/C=C(\C)C[C@H](C)C[C@H](OC)[C@H]2O[C@@](O)(C(=O)C(=O)N3CCCC[C@H]3C(=O)O[C@H](/C(C)=C/[C@@H]3CC[C@H](Cl)[C@H](OC)C3)[C@H](C)[C@@H](O)CC1=O)[C@H](C)C[C@@H]2OC` [Pimecrolimus]: for the setting “Pimecrolimus 300 μg TDL in cap region, FIG. 6B”, the “release profile of Pimecrolimus (in vitro cumulative release)” value is on record as “high initial release rate followed by a slower prolonged release”.

insulin: the “insulin released (in vitro cumulative release)” value (insulin 250 μg TDL in PLGA, in the first 48 hours, FIG. 6A) is on record as “at least 50%”.
